Data as given in PMC3905878 (2013).

Tests used:
[1] = system: Bsu A27C mutant (RNA, riboswitch, 5-aminoallyl-uridine at 13) AGAGGUUCUAGCUACACCCUCUAUAACAAACUAAGG; assay: smFRET, fraction of high-FRET state; conditions: 100 mM KCl, 1 mM MgCl2; 50 mM Tris-HCl pH 7.5, room temperature; apparent
[2] = system: Bsu preQ1 riboswitch (wild-type, smFRET construct) (RNA, riboswitch, 5-aminoallyl-uridine at 13) AGAGGUUCUAGCUACACCCUCUAUAAAAAACUAAGG; assay: smFRET, fraction of high-FRET state; conditions: 100 mM KCl, 1 mM MgCl2; 50 mM Tris-HCl pH 7.5, room temperature; apparent; high-FRET saturates near 50%
[3] = system: T. tengcongensis preQ1-I riboswitch 33-mer (RNA, riboswitch) CUGGGUCGCAGUAACCCCAGUUAACAAAACAAG; assay: ITC; conditions: 100 mM NaCl, 6 mM MgCl2; 50 mM HEPES-NaOH pH 7.0, 25 °C; Table S3 prints 7.4 ± 2.3
[4] = system: Tte preQ1 riboswitch (wild-type, smFRET construct) (RNA, riboswitch, 5-aminoallyl-uridine at 12) CUGGGUCGCAGUAACCCCAGUUAACAAAACAAGGG; assay: smFRET, fraction of high-FRET state; conditions: 100 mM KCl, 1 mM MgCl2; 50 mM Tris-HCl pH 7.5, room temperature; apparent; high-FRET saturates near 50%

K1/2 [1]: 11 µM
K1/2 [2]: 134 ± 45 nM
KD [3]: 7.3 ± 2.3 nM
K1/2 [4]: 69 ± 22 nM
Structure (SMILES): NCc1c[nH]c2nc(N)[nH]c(=O)c12
